Assays:
[1] = system: patients with refractory or intolerant advanced myelofibrosis; experiment: Phase 2 study, Arms 1 and 2 together (monotherapy or add-on to ruxolitinib); type: in vivo, human
Procedure: A Phase 2 study of Compound 1 in subjects with myelofibrosis (MF) was conducted. Three treatment arms were studied:
(§1) Arm 1=monotherapy with Compound 1 in patients (pts) who are no longer on Rux and are with refractory, intolerant, or ineligible. In this arm patients were further stratified based on transfusion dependence status [transfusion dependent (TD), defined as an average of >2 units per month over 12 wks, or non-TD cohorts]. Primary endpoint: spleen volume response (SVR) for non-TD cohorts or TD to transfusion independence (TI, no transfusion for consecutive 12 wks) conversion for TD cohorts; secondary endpoints: change in total symptom score (TSS) per MFSAF v4.0, patient global impression of change (PGIC), safety and PK; additional endpoints: changes in proinflammatory Ck levels, BM morphology and mutant allele burden.
as §1, with “2=combination add-on treatment of” for “1=monotherapy with”, “already being administered Rux.” for “no longer on Rux and are with refractory, intolerant, or ineligible.”, “cohorts]. The starting dose of Compound 1 was 125 mg daily on days 1-14 of a 21-day cycle in both arms.” for “cohorts].”
The starting dose of Compound 1 was 125 mg given orally, once daily for 2 weeks on/1 week off in a 21-day dosing cycle. Two separate time points for data analysis occurred for at least Arms 1 and 2 and are discussed below: one at approximately 12 weeks of treatment (first assessment of spleen volume by MRI or CT and every 12 weeks thereafter) and another at approximately 24 weeks of treatment (first assessment of bone marrow biopsy and every 24 weeks thereafter). Patients were added to the study following the first time point.
Demographics and results are as follows: At baseline, median age: 69 years (41-88), gender: 28 (58%) male, ECOG <1: 45 (94%) patients, primary MF: 33 (69%) patients, DIPSS score high: 10 (21%) patients, median platelet: 199 x 1091 (77-895), 34 (71%) patients with Hgb <10 g/dL, median spleen volume: 2183 cc (123-3909), median TSS: 17.6 (1.4-56), 46 (96%) patients had ≥1 JAK2/MPL/CALR mutations, and 34 (71%) patients had HMR (high molecular risk) mutations. 33 (69%) patients on treatment for ≥12 wks, 4 on treatment for >18 months.

[2] = system: patients with refractory or intolerant myelofibrosis no longer on Rux; experiment: Phase 2 study, Arm 1 (Compound 1 monotherapy); type: in vivo, human; settings: for average spleen volume reduction: 24 weeks, FIG. 13A
Procedure: A Phase 2 study of Compound 1 in subjects with myelofibrosis (MF) was conducted. Three treatment arms were studied: Arm 1=monotherapy with Compound 1 in patients (pts) who are no longer on Rux and are with refractory, intolerant, or ineligible. In this arm patients were further stratified based on transfusion dependence status [transfusion dependent (TD), defined as an average of >2 units per month over 12 wks, or non-TD cohorts]. Primary endpoint: spleen volume response (SVR) for non-TD cohorts or TD to transfusion independence (TI, no transfusion for consecutive 12 wks) conversion for TD cohorts; secondary endpoints: change in total symptom score (TSS) per […]4.0, patient global impression of change (PGIC), safety and PK; additional endpoints: changes in proinflammatory Ck levels, BM morphology and mutant allele burden. The starting dose of Compound 1 was 125 mg given orally, once daily for 2 weeks on/1 week off in a 21-day dosing cycle. Two separate time points for data analysis occurred for at least Arms 1 and 2 and are discussed below: one at approximately 12 weeks of treatment (first assessment of spleen volume by MRI or CT and every 12 weeks thereafter) and another at approximately 24 weeks of treatment (first assessment of bone marrow biopsy and every 24 weeks thereafter). Patients were added to the study following the first time point. Patients were added to the study following the first data cut and treatment was continued for approximately 25.9 weeks (median, range: 0.4, 116.6).

[3] = Time Point 2, Arms 1 and 2, FIG. 14

## Cc1noc2c1-c1ccccc1C(c1ccc(Cl)cc1)=N[C@H]2CC(N)=O [Compound 1, 2-((4S)-6-(4-chlorophenyl)-1-methyl-4H-benzo[c]isoxazolo[4,5-e]azepin-4-yl)acetamide]
[1]; Time Point 1
  most common (≥20%) treatment-emergent adverse events of any Gr: diarrhea, nausea, cough and upper respiratory tract infection
  ≥3 Gr TEAE anemia: 8.3%
[1]; Time Point 1, 7 of 12 evaluable patients, as early as 6-months
  patients with improvement in BM fibrosis and/or reticulin by ≥1 Gr: 58%
[1]; Time Point 1, 11 patients
  patients with ≥50% TSS improvement: 39%
[1]; Time Point 1, 21 patients
  patients reporting much or very much improved PGIC scores: 64%
[1]; Time Point 1, 26 of 28 patients, FIG. 8 panel B
  patients with TSS improvement: 93%
[1]; Time Point 1, 28 of 33 patients
  patients with PGIC improvement score: 85%
[1]; Time Point 1, 29 of 31 patients, FIG. 8 panel A
  patients with spleen volume reduction: 94%
[1]; Time Point 1, asymptomatic, non-cumulative and generally reversible
  ≥3 Gr TEAE thrombocytopenia: 8.3%
[1]; [3]
  subjects with bone marrow fibrosis improvement: about 38%
  subjects with bone marrow fibrosis improvement as early as 6-months: about 32%
[1]; alone or add-on to ruxolitinib
  tolerability: generally well-tolerated
[2]; Time Point 1, monotherapy, 4 of 8
  patients with increase in hemoglobin by 1.5 mg/dL post-baseline: 50%
[2]; Time Point 2, TD patients (Cohort 1A)
  average spleen volume reduction: about −3.2%
[2]; Time Point 2, non-TD patients (Cohort 1B)
  average spleen volume reduction: about −26%
[2]; Time Point 2, TD patients
  patients with improved PGIC: about 50%
  patients with improvement in bone marrow fibrosis: about 25%
[2]; Time Point 2, non-TD patients
  patients with improved PGIC: 100%
  patients with improvement in disease symptoms per TSS: About 60%

From patent publication US12070464B2, “Methods of treating myeloproliferative disorders” (priority 2019, dated 2024)
